From patent US20250092031A1, “RIPK3 INHIBITORS AND METHODS OF USE” (Momentum Therapeutics, Inc., priority 2023, published 2025)

Tests used:
Human HT-29 cells = assay: Necroptosis inhibition assay in HT-29 cells (hTNFα + zVAD + SMAC mimetic, Sytox Green/Hoechst); type: cell-based; settings: 10 ng/ml hTNFα, 20 μM zVAD and 100 nM SMAC mimetic, 6 hours, Sytox/Hoechst positive cells, read-out: HT29 necroptosis inhibition IC50
Experimental: Human HT-29 cells (ATCC-HTB-38) were seeded at 10,000 cells/well in a 96-well plate. Cells were treated 48 hours after seeding with 10 ng/ml hTNFα (R&D Systems), 20 μM zVAD (ChemShuttle) and 100 nM SMAC mimetic (MedChem Express) in the presence of different concentrations of compounds ranging from […] to 0.01 μM. Cells treated with 0.1% DMSO or cells treated with TNFα+zVAD+SMAC mimetic were used as control and vehicle respectively.
Assay plates containing cells were incubated for 6 hours at 37° C. and 5% CO2. Necroptosis was assessed using Sytox Green Nucleic Acid Stain (Invitrogen) and Hoechst staining. After incubation, 100 μL of Sytox dye at 2 μM (2×) diluted in HBSS 1× was added to each well. At the same time, Hoechst stain is added to a final concentration of 10 μM and incubated for 15 min at room temperature. Images were taken for Sytox and Hoechst using the Cytation 5 microplate reader with DAPI and GFP filter cubes (Biotek). Sytox and Hoechst positive cells were counted with CellProfiler software.
Percentage of necroptosis inhibition was calculated as the percent compared to control and vehicle conditions which correspond to 100% and 0% respectively. The half-maximum necroptosis inhibition (IC50) levels were calculated using GraphPad Prism software and are shown in Table 3 (NT represents compound not tested).

Murine L929 cells = assay: Necroptosis inhibition assay in L929 cells (mTNFα + zVAD, Sytox Green); type: cell-based; settings: Mus musculus, 10 ng/ml mTNFα and 20 μM zVAD, 6 hours, Sytox Green fluorescence
Outline: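 Murine L929 cells, treated 48 h after seeding with 10 ng/ml mTNFα plus 20 μM zVAD and compound ([…]), 6 h at 37° C. Necroptosis read by Sytox Green fluorescence (500ex/530em), scaled between 0.1% DMSO and TNFα+zVAD wells; IC50 from inhibition curves.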

RIPK3 = target: T1, RIPK3 (Homo sapiens, UniProt Q9Y572); assay: RIPK3 kinase assay (radiometric HotSpot, Reaction Biology Corporation); type: biochemical
T1 construct: purchased Reaction Biology Corporation (RBC), Malvern, USA (contract assay service)
T1 sequence (Q9Y572 whole entry): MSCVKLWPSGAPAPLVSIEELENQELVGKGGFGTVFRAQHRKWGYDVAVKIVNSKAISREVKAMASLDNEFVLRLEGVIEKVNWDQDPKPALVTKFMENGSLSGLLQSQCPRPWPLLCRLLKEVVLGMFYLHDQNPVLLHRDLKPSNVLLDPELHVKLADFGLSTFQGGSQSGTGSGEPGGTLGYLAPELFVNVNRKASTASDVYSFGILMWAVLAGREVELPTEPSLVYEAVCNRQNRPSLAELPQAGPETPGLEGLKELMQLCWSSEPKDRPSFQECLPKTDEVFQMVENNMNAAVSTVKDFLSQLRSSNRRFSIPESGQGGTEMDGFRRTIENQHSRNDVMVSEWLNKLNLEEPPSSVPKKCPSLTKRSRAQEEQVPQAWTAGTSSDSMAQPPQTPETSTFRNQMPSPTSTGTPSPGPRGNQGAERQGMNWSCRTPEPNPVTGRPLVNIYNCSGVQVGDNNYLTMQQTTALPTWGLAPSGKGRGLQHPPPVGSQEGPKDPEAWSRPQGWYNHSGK
Experimental: The assays were performed in Reaction Biology Corporation (RBC), Malvern, USA. Compounds were diluted with DMSO to a final stock concentration of 10 mM and then were tested in a 10-dose IC50 mode with a 3-fold serial dilution starting at […]. All the reactions were carried out at 10 μM ATP and MBP 20 μM as substrates. RIPK3 activity was determined using radiometric HotSpot™ kinase assay protocol and IC50 values were calculated use GraphPad Prism software.

Structure (SMILES) | IC50 (RIPK3) [nM] | IC50 (Human HT-29 cells) [nM] | IC50 (Murine L929 cells) [nM]
CN1CCN(Cc2ccc(-c3ccc4nccc(Nc5ccc6scnc6c5)c4c3)c(F)c2)CC1 [Compound 11, N-(6-(2-fluoro-4-((4-methylpiperazin-1-yl)methyl)phenyl)quinolin-4-yl)benzo[d]thiazol-5-amine] | 1.29 | 102 | 333
O=C1CN(Cc2ccc(-c3ccc4nccc(Nc5ccc6scnc6c5)c4c3)c(F)c2)CCN1 [Compound 12, 4-(4-(4-(benzo[d]thiazol-5-ylamino)quinolin-6-yl)-3-fluorobenzyl)piperazin-2-one] | 1.67 | 208 | 776
CN1CCN(Cc2ccc(-c3ccc4nccc(Nc5ccc6scnc6c5)c4c3)c(F)c2)CC1=O [Compound 13, 4-(4-(4-(benzo[d]thiazol-5-ylamino)quinolin-6-yl)-3-fluorobenzyl)-1-methylpiperazin-2-one] | 1.72 | 317 | 1130
OCCN1CCN(Cc2ccc(-c3ccc4nccc(Nc5ccc6scnc6c5)c4c3)c(F)c2)CC1 [Compound 17, 2-(4-(4-(4-(benzo[d]thiazol-5-ylamino)quinolin-6-yl)-3-fluorobenzyl)piperazin-1-yl)ethanol] | 0.95 | 97.1 | 341
CN1CCN(Cc2ccc(-c3ccc4nccc(Nc5ccc6scnc6c5)c4c3)cc2F)CC1 [Compound 21, N-(6-(3-fluoro-4-((4-methylpiperazin-1-yl)methyl)phenyl)quinolin-4-yl)benzo[d]thiazol-5-amine] | 1.51 |  | < 10000
Fc1cc(CN2CCOCC2)ccc1-c1ccc2nccc(Nc3ccc4scnc4c3)c2c1 [Compound 22, N-(6-(2-fluoro-4-(morpholinomethyl)phenyl)quinolin-4-yl)benzo[d]thiazol-5-amine] | 2.13 | 327 | 316
CN1CCN(Cc2ccc(-c3ccc4nccc(Nc5ccc(Cl)c(Cl)c5)c4c3)c(F)c2)CC1 [Compound 31, N-(3,4-dichlorophenyl)-6-(2-fluoro-4-((4-methylpiperazin-1-yl)methyl)phenyl)quinolin-4-amine] | 2.75 | 523 | 1660
CC(C)(C)N1CCN(Cc2ccc(-c3ccc4nccc(Nc5ccc6scnc6c5)c4c3)c(F)c2)CC1 [Compound 36, N-(6-(4-((4-(tert-butyl)piperazin-1-yl)methyl)-2-fluorophenyl)quinolin-4-yl)benzo[d]thiazol-5-amine] | 1.28 | 353 | 318
CC(C)(C)N1CCN(Cc2ccc(-c3ccc4c(Nc5ccc6scnc6c5)ccnc4c3)c(F)c2)CC1 [Compound 37, N-(7-(4-((4-(tert-butyl)piperazin-1-yl)methyl)-2-fluorophenyl)quinolin-4-yl)benzo[d]thiazol-5-amine] | 1.79 | 670 | 445
Fc1cc(CN2CCC(F)(F)CC2)ccc1-c1ccc2nccc(Nc3ccc4scnc4c3)c2c1 [Compound 40, N-(6-(4-((4,4-difluoropiperidin-1-yl)methyl)-2-fluorophenyl)quinolin-4-yl)benzo[d]thiazol-5-amine] | 18.3 | 7870 | 1060
Fc1cc(CN2CCNCC2)ccc1-c1ccc2nccc(Nc3ccc4scnc4c3)c2c1 [Compound 41, N-(6-(2-fluoro-4-(piperazin-1-ylmethyl)phenyl)quinolin-4-yl)benzo[d]thiazol-5-amine] | 0.133 | 86.8 | 365
O=c1ccccn1Cc1ccc(-c2ccc3nccc(Nc4ccc5scnc5c4)c3c2)c(F)c1 [Compound 47, 1-(4-(4-(benzo[d]thiazol-5-ylamino)quinolin-6-yl)-3-fluorobenzyl)pyridin-2(1H)-one] | 0.86 | 1020 | 421
Fc1cc(CN2CC3(CCOCC3)C2)ccc1-c1ccc2nccc(Nc3ccc4scnc4c3)c2c1 [Compound 51, N-(6-(4-(7-oxa-2-azaspiro[3.5]nonan-2-ylmethyl)-2-fluorophenyl)quinolin-4-yl)benzo[d]thiazol-5-amine] | 1.88 | 1200 | 832
Fc1cc(CN2CC3(CCOCC3)C2)ccc1-c1ccc2c(Nc3ccc4scnc4c3)ccnc2c1 [Compound 52, N-(7-(4-(7-oxa-2-azaspiro[3.5]nonan-2-ylmethyl)-2-fluorophenyl)quinolin-4-yl)benzo[d]thiazol-5-amine] | 0.57 | 505 | 323

Second part, led by results:

IC50 (RIPK3) [nM] | Structure (SMILES) | IC50 (Human HT-29 cells) [nM] | IC50 (Murine L929 cells) [nM]
2.58 | CN1CCN(Cc2ccc(-c3ccc4nccc(Nc5ccc6scnc6c5)c4c3)cc2)CC1 [Compound 1, N-(6-(4-((4-methylpiperazin-1-yl)methyl)phenyl)quinolin-4-yl)benzo[d]thiazol-5-amine] | 334 | 341
2.99 | Fc1cc(CN2CCCCC2)ccc1-c1ccc2nccc(Nc3ccc4scnc4c3)c2c1 [Compound 14, N-(6-(2-fluoro-4-(piperidin-1-ylmethyl)phenyl)quinolin-4-yl)benzo[d]thiazol-5-amine] | 565 | 492
3.57 | CN1CCN(c2ccc(-c3ccc4nccc(Nc5ccc6scnc6c5)c4c3)cc2)CC1 [Compound 15, N-(6-(4-(4-methylpiperazin-1-yl)phenyl)quinolin-4-yl)benzo[d]thiazol-5-amine] | > 1000 | 1190
0.51 | CN1CCN(Cc2ccc(-c3ccc4c(Nc5ccc6scnc6c5)ccnc4c3)cc2)CC1 [Compound 16, N-(7-(4-((4-methylpiperazin-1-yl)methyl)phenyl)quinolin-4-yl)benzo[d]thiazol-5-amine] | 158 | 104
2.21 | Fc1cc(CN2CCCC2)ccc1-c1ccc2nccc(Nc3ccc4scnc4c3)c2c1 [Compound 23, N-(6-(2-fluoro-4-(pyrrolidin-1-ylmethyl)phenyl)quinolin-4-yl)benzo[d]thiazol-5-amine] | 302 | 275
1.13 | CN1CCCN(Cc2ccc(-c3ccc4nccc(Nc5ccc6scnc6c5)c4c3)c(F)c2)CC1 [Compound 27, N-(6-(2-fluoro-4-((4-methyl-1,4-diazepan-1-yl)methyl)phenyl)quinolin-4-yl)benzo[d]thiazol-5-amine] | 168 | 669
3.47 | CN1CCC(c2ccc(-c3ccc4nccc(Nc5ccc6scnc6c5)c4c3)cc2)CC1 [Compound 28, N-(6-(4-(1-methylpiperidin-4-yl)phenyl)quinolin-4-yl)benzo[d]thiazol-5-amine] | > 10000 | 2590
2.31 | CN1CCN(Cc2ccc(-c3ccc4c(Nc5ccc6scnc6c5)ccnc4c3)c(F)c2)CC1 [Compound 29, N-(7-(2-fluoro-4-((4-methylpiperazin-1-yl)methyl)phenyl)quinolin-4-yl)benzo[d]thiazol-5-amine] | 341 | 494
0.65 | CN1CCN(C(=O)c2ccc(-c3ccc4c(Nc5ccc6scnc6c5)ccnc4c3)cc2)CC1 [Compound 34, (4-(4-(benzo[d]thiazol-5-ylamino)quinolin-7-yl)phenyl)(4-methylpiperazin-1-yl)methanone] | 119 | 68.5
3.97 | CN1CCN(C(=O)c2ccc(-c3ccc4nccc(Nc5ccc6scnc6c5)c4c3)cc2)CC1 [Compound 35, (4-(4-(benzo[d]thiazol-5-ylamino)quinolin-6-yl)phenyl)(4-methylpiperazin-1-yl)methanone] | 116 | 818
0.162 | Fc1cc(CN2CCCCC2)ccc1-c1ccc2c(Nc3ccc4scnc4c3)ccnc2c1 [Compound 43, N-(7-(2-fluoro-4-(piperidin-1-ylmethyl)phenyl)quinolin-4-yl)benzo[d]thiazol-5-amine] | 93.9 | 188
0.102 | c1cc(Nc2ccc3scnc3c2)c2ccc(-c3ccc(OCCN4CCCCC4)cc3)cc2n1 [Compound 50, N-(7-(4-(2-(piperidin-1-yl)ethoxy)phenyl)quinolin-4-yl)benzo[d]thiazol-5-amine] | 708 | 320
1.92 | O=C(c1ccc(-c2ccc3c(Nc4ccc5scnc5c4)ccnc3c2)c(F)c1)N1CCOCC1 [Compound 244, (4-(4-(benzo[d]thiazol-5-ylamino)quinolin-7-yl)-3-fluorophenyl)(morpholino)methanone] |  | < 1000
